Among the data in PubChem BioAssay (NCI) are GI50 and TGI values, retold here.

The structures appear in SMILES notation.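 Cultured in 96-well plates, cells were exposed to test compound for 48 hours across five concentrations. GI50 = concentration required for 50% inhibition of growth. Definition used: TGI = concentration required for complete inhibition of growth.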 Where only a bound is given, the exact number is not on record here.

Test systems include BT-549 breast; DU-145 prostate; HCC-2998 colon; IGROV1 ovarian; M14 melanoma; MCF7 breast; SF-539 CNS; SK-MEL-2 melanoma; SR leukemia; UO-31 renal.
What all share (assay): inhibition of tumour cell growth, NCI panel, 48 h

For the compound `CNCCn1c(=O)c2cc(OC)c(OC)cc2c2cnc3cc4c(cc3c21)OCO4`, the GI50 in the assay on BT-549 breast is 0.0309 µM; in the assay on DU-145 prostate it was below 0.01 µM; in the assay on HCC-2998 colon it was 0.0484 µM; in the assay on IGROV1 ovarian it was 0.0276 µM; in the assay on M14 melanoma it was below 0.01 µM; in the assay on MCF7 breast it was below 0.01 µM. Besides, the GI50 in the assay with SF-539 CNS is below 0.01 µM; in the assay on SK-MEL-2 melanoma, 2.32 µM; with SR leukemia, below 0.01 µM; in the assay on UO-31 renal it was below 0.01 µM. The TGI was found to be 1.79 µM in the assay on BT-549 breast; 1.27 µM in the assay on DU-145 prostate; 1.79 µM in the assay with HCC-2998 colon; 1.76 µM in the assay on IGROV1 ovarian; 1.36 µM in the assay on M14 melanoma; 1.14 µM in the assay on MCF7 breast. For the same compound, the results for the TGI in the assay on SF-539 CNS, in the assay with SK-MEL-2 melanoma and with UO-31 renal were 0.0103 µM, 4.91 µM and 1.21 µM, respectively.
As to `O=C(Nc1ccc(Cl)cc1)Nc1nccs1`, the GI50 was 8.68 µM in the assay with BT-549 breast; 3.82 µM in the assay on DU-145 prostate; 12.9 µM with HCC-2998 colon; 1.26 µM with IGROV1 ovarian; 0.543 µM in the assay with M14 melanoma; 0.439 µM in the assay on MCF7 breast. Moreover, the GI50 was 1.81 µM in the assay with SF-539 CNS, 0.784 µM in the assay with SK-MEL-2 melanoma, 0.45 µM in the assay on SR leukemia and 4.29 µM in the assay on UO-31 renal. Besides, the TGI in the assay on BT-549 breast is 57.9 µM; in the assay on DU-145 prostate it was 71.9 µM; with HCC-2998 colon it was 45.9 µM; with IGROV1 ovarian it was above 100 µM; with M14 melanoma, 27.5 µM; in the assay on MCF7 breast, above 100 µM. Moreover, the TGI with SF-539 CNS was 6.42 µM; with SK-MEL-2 melanoma it was 43.3 µM; with SR leukemia, 62.6 µM; with UO-31 renal, above 100 µM.
`COc1ccc2c(c1)C(C)Cc1c(ncnc1-n1cnc3ccccc31)N2C` (stereo not drawn): the GI50 in the assay with BT-549 breast was 0.47 µM; in the assay on DU-145 prostate it was 0.439 µM; in the assay on HCC-2998 colon, 0.922 µM; in the assay with IGROV1 ovarian, 1.41 µM; with M14 melanoma, 0.313 µM; in the assay on MCF7 breast, 0.313 µM. Moreover, the GI50 with SF-539 CNS was 0.251 µM; in the assay with SK-MEL-2 melanoma, 0.357 µM; in the assay with SR leukemia, 0.33 µM; with UO-31 renal it was 0.72 µM. In addition, the TGI with BT-549 breast stood at 10.3 µM; in the assay with DU-145 prostate it was 10.3 µM; with HCC-2998 colon, 10.4 µM; in the assay on IGROV1 ovarian it was 29.1 µM; in the assay on M14 melanoma it was 12.7 µM; in the assay with MCF7 breast, 14 µM. Moreover, the TGI with SF-539 CNS turned out to be 0.774 µM; with SK-MEL-2 melanoma, 24.6 µM; in the assay with SR leukemia, 28 µM; in the assay with UO-31 renal, 19.2 µM.
For `CC(C)(C)c1cc(C(=O)/C=C/c2ccc(C(=O)O)cc2)cc(C(C)(C)C)c1`, the TGI was 6.61 µM in the assay on BT-549 breast; 8.52 µM with DU-145 prostate; 3.88 µM in the assay with HCC-2998 colon; 12.2 µM in the assay with IGROV1 ovarian; 3.89 µM with M14 melanoma; 14.8 µM in the assay on MCF7 breast. In addition, the TGI with SF-539 CNS came to 2.97 µM; with SK-MEL-2 melanoma, 12.7 µM; in the assay with SR leukemia, 6.16 µM; in the assay on UO-31 renal, 17.8 µM.
For `CN(C)CCNc1nc2ccccc2c2c(=O)c3cc(F)ccc3sc12`, the GI50 in the assay with BT-549 breast was 3.52 µM; in the assay with DU-145 prostate it was 1.77 µM; in the assay on HCC-2998 colon, 1.68 µM; with IGROV1 ovarian it was 1.53 µM; in the assay on M14 melanoma, 1.9 µM; in the assay on MCF7 breast it was 1.62 µM. For the same compound, the GI50 was 1.67 µM with SF-539 CNS, 2.05 µM with SK-MEL-2 melanoma, 3.27 µM in the assay with SR leukemia and 1.4 µM with UO-31 renal. In addition, the TGI in the assay on BT-549 breast was above 100 µM; in the assay on DU-145 prostate, 3.21 µM; in the assay with HCC-2998 colon, 3.23 µM; in the assay on IGROV1 ovarian, 2.99 µM; in the assay with M14 melanoma it was 3.55 µM; in the assay with MCF7 breast, 3.22 µM. Besides, the TGI is 3.07 µM in the assay with SF-539 CNS, 4.06 µM in the assay on SK-MEL-2 melanoma, above 100 µM in the assay with SR leukemia and 2.73 µM with UO-31 renal.
As for `CN1C(NNC(=O)c2cccnc2)=NS(=O)(=O)c2cc(Cl)ccc21`, the GI50 in the assay with BT-549 breast, in the assay on DU-145 prostate, with HCC-2998 colon, in the assay on IGROV1 ovarian, in the assay on M14 melanoma and with MCF7 breast was above 100 µM each time. Moreover, the GI50 in the assay with SF-539 CNS, in the assay with SK-MEL-2 melanoma, in the assay with SR leukemia and in the assay with UO-31 renal was above 100 µM in each case. In addition, the TGI in the assay on BT-549 breast, with DU-145 prostate, in the assay on HCC-2998 colon, in the assay on IGROV1 ovarian, with M14 melanoma and with MCF7 breast was above 100 µM throughout. The TGI in the assay on SF-539 CNS, in the assay on SK-MEL-2 melanoma, with SR leukemia and with UO-31 renal was above 100 µM throughout.
Consider `NCCCn1c2c(c3ccccc3c1=O)C(=O)c1ccccc1-2`, for which the GI50 with BT-549 breast was 1.47 µM; in the assay on DU-145 prostate, 0.118 µM; in the assay on HCC-2998 colon, 0.0684 µM; in the assay with IGROV1 ovarian, 0.34 µM; in the assay with M14 melanoma, 0.628 µM; in the assay on MCF7 breast, 0.0728 µM. The GI50 with SF-539 CNS was 0.104 µM; in the assay with SK-MEL-2 melanoma, 4.31 µM; in the assay with SR leukemia it was 0.0743 µM; in the assay with UO-31 renal, 0.248 µM. In addition, the TGI was 12.4 µM with BT-549 breast; 3.71 µM in the assay on DU-145 prostate; 1.01 µM in the assay on HCC-2998 colon; above 64.4 µM with IGROV1 ovarian; 3.47 µM in the assay with M14 melanoma; 18 µM in the assay with MCF7 breast. The values for the TGI with SF-539 CNS, in the assay on SK-MEL-2 melanoma and in the assay on UO-31 renal were 1.13 µM, 12.5 µM and 16.5 µM, respectively.
